{"source": "patent US12558336B2", "about": "“Metabolic rescue of retinal degeneration” (The Board of Trustees of the Leland Stanford Junior …, priority 2019, dated 2026)", "key": {"Pde6α^D670G mice [1]": {"test_system": "Pde6α^D670G mice", "assay": "Histological analysis of outer nuclear layer (ONL) thickness by number of photoreceptor cell nuclei", "assay_type": "in vivo, mouse", "details": "vs untreated Pde6α^D670G mice, one month of age", "description": "Histology—Mice were sacrificed and the eyes enucleated as previously described (19). Eyes were embedded in paraffin, sectioned, and stained with hematoxylin and eosin by Exaclibur Pathology, Inc. (Norman, OK), before being visualized by light microscopy (Leica DM 5000B, Leica Microsystems, Germany). Quantification of photoreceptor nuclei was conducted on several sections that contained the optic nerve, as follows: the distance between the optic nerve and the ciliary body was divided into four, approximately equal, quadrants. Three columns of nuclei (how many cell nuclei thick) were counted within each single quadrant. These counts were then used to determine the average thickness of the ONL for each individual animal at each time. Sectioning proceeded along the long axis of the segment, so that each section contained upper and lower retina as well as the posterior pole.\nGene ontology (GO) analysis was also performed in PANTHER."}, "Pde6α^D670G mice [2]": {"test_system": "Pde6α^D670G mice", "assay": "Electroretinography (ERG) of treated Pde6α^D670G arRP mice", "details": "vs untreated Pde6α^D670G mice, one month of age", "description": "Mouse lines and husbandry—C57BL/6J-Pde6α^nmf363/nmf363, with a D670G mutation, herein referred to as Pde6α^D670G, mice were obtained from the Jackson Laboratory (Bar Harbor, ME, USA). Pde6α^D670G are co-isogenic in the C57BL/6J (B6) background; therefore, age-matched B6 mice were used as experimental controls. Mice were bred and maintained at the facilities of Columbia University and Stanford University. Animals were kept on a light-dark cycle (12 hour-12 hour). Food and water were available ad libitum throughout the experiment, whether treated or untreated. Dark-raising was performed under 24 hr dark cycle following approved institutional guidelines. […] All water bottles were covered in foil to reduce light exposure and changed weekly during the duration of the experiment following approved institutional guidelines.\nElectroretinography (ERG)—Mice were dark-adapted overnight, manipulations were conducted under dim red-light illumination, and recordings were made using Espion or Celeris ERG Diagnosys equipment (Diagnosys LLL, Littleton, MA, USA) as previously described. Briefly, adult B6 control mice were tested at the beginning of each session to ensure equal readouts from the electrodes for both eyes before testing the experimental mice. Pupils were dilated using topical 2.5% phenylephrine hydrochloride and 1% tropicamide (Akorn Inc., Lakeforest, IL, USA). Mice were anesthetized by intraperitoneal injection of 0.1 ml/10 g body weight of anesthesia [1 ml ketamine 100 mg/ml (Ketaset III, Fort Dodge, IA, USA) and 0.1 ml xylazine 20 mg/ml (Lloyd Laboratories, Shenandoah, IA, USA) in 8.9 ml PBS]. Body temperature was maintained at 37° C. during the procedure. Both eyes were recorded simultaneously and responses were averaged for each trial. Responses were taken from the Espion/Celeris readout in microvolts.\nStatistical and bioinformatics analysis—Results were also saved in Excel as .txt format and were uploaded into the Partek Genomics Suite 6.5 software package as described previously (5-9). The data was normalized to log base 2 and compared using 1-way ANOVA analysis. All proteins with non-significant (p>0.05) changes were eliminated from the table. The significant values were mapped using the ‘cluster based on significant genes’ visualization function with the standardization option chosen. […] Differences in experimental groups were determined by the Student's t-test as appropriate, or by one-way ANOVA followed by Tukey's post-hoc multiple comparison's test. p values <0.05 were considered significant. For ERG and histological analysis of mouse eyes, differences were determined by the Student's t-test as appropriate, or by one-way ANOVA followed by Tukey's post-hoc multiple comparison's test. p values<0.05 were considered significant."}}, "note": "“Also recorded” adds a separate entry of the source."}
{"smiles": "O=C(O)CCC(=O)C(=O)O", "note": "[alpha-ketoglutarate, Alpha-ketoglutaric acid]", "values": [{"measurement": "thickness of the outer nuclear layer (ONL) by number of photoreceptor cell nuclei", "setting": "Pde6α^D670G mice [1]", "result": "significant rescue of photoreceptor cells and their inner/outer segments; also recorded: significant increase in the thickness of the outer nuclear layer (ONL)"}]}
{"smiles": "NC(=O)c1cccnc1", "note": "[vitamin B3, Nicotinamide]", "values": [{"measurement": "maximum scotopic a-wave response, quantification of ERGs from a cohort of mice", "setting": "Pde6α^D670G mice [2]", "result": "no significant visual rescue"}, {"measurement": "maximum scotopic b-wave response, quantification of ERGs from a cohort of mice", "setting": "Pde6α^D670G mice [2]", "result": "no significant visual rescue"}, {"measurement": "rod photoreceptor cell response, quantification of ERGs from a cohort of mice", "setting": "Pde6α^D670G mice [2]", "result": "no significant visual rescue"}, {"measurement": "rod photoreceptor cell response, scotopic 0.1 dim-light rod-specific ERG (representative traces)", "setting": "Pde6α^D670G mice [2]; vitamins 2.5 g/L or alpha-ketoglutarate 10 g/L in drinking water from P0, ketogenic diet from P21", "result": "increased rod photoreceptor functional response"}]}
